According to ChEMBL document CHEMBL5360642, “Assimiloside A, a Glycolipid with Immunomodulatory Activity from the Northwestern Pacific Marine Sponge Hymeniacidon assimilis” (2023):
Activity calls are given as the source filed them. The rule behind the calls is not given here.

Key:
[1] = test system: RAW264.7; assay: Induction of ROS production in mouse RAW264.7 cells assessed as increase in intracellular ROS formation at 10 uM incubated for 3 hrs by DCFH2-DA staining based assay relative to control; format: functional
[2] = test system: RAW264.7; assay: Induction of ROS production in mouse RAW264.7 cells assessed as increase in intracellular ROS formation at 1 uM incubated for 3 hrs by DCFH2-DA staining based assay relative to control; format: functional, cell-based
[3] = test system: RAW264.7; assay: Immunomodulatory activity in mouse RAW264.7 cells assessed as stimulation of lysosomal activity at 0.01 to 10 uM incubated for 2 hrs by acridine orange based fluorescence microplate reader analysis relative to control; format: functional; conditions: dose 0.01-10 µM
[4] = test system: RAW264.7; assay: Induction of ROS production in mouse RAW264.7 cells assessed as increase in intracellular ROS formation at 0.01 to 0.1 uM incubated for 3 hrs by DCFH2-DA staining based assay relative to control; format: functional; conditions: dose 0.01-0.1 µM

CC[C@@H](O)CCCCCCCCCC(CCCCCCCCCCC[C@@H]1CCC(=O)O1)O[C@@H]1O[C@H](CO[C@@H]2OC[C@@H](O)[C@H](O)[C@H]2O)[C@@H](O)[C@H](O)[C@H]1O[C@@H]1OC[C@@H](O)[C@H](O)[C@H]1O (some centres undefined)
Activity [1]: 15%
Activity [2]: inactive
Activity [3]: 25%
Activity [4]: 15%
